Series [1] concerns the target T1, recombinant human cannabinoid 1 receptor (CB1) (Homo sapiens, UniProt P21554).
T1 construct: expressed in transfected cells
The series can be described thus: In vitro determination of antagonism to CB1-receptor, [35S]GTPγS binding assay. It counts as biochemical. The settings on record: compound 1 µM versus agonist WIN 55,212-2; 100 % = maximal antagonism with Rimonabant (1 µM). How it is done:
The reaction is performed in 96-well plates. […] Radioactivity is determined using a Wallac Microbeta Trilux. Each experiment is performed at least in duplicate.
The average of basal [^35S]GTPγS binding is subtracted from all binding data.

A short description of series [2]: Feeding study in dietary-induced obese rats: food intake and body weight. The series is classed as in vivo, female Wistar rats. The settings on record: end of 28 day treatment, Figure 3. The procedure: The experiment was performed on female Wistar rats (originally in the weight range 250-300 g). The rats were housed in pairs in polypropylene cages with solid floors and sawdust bedding at a temperature of 21±4°C and 55±20% humidity. Animals were maintained on a reverse phase light-dark cycle (lights off for 8 h from 09.30-17.30 h) during which time the room was illuminated by red light. Animals had free access to powdered high fat diet (VRF1 plus 20% lard), ground chocolate, ground peanuts and tap water at all times. The three different diets were contained in separate glass feeding jars with aluminum lids with a 3-4 cm hole cut in it to allow access to the food. Animals were housed in pairs for twelve weeks for the induction of obesity. Animals were then housed singly in polypropylene cages with wire grid floors to enable the food intake of each rat to be recorded. Polypropylene trays with cage pads were placed beneath each cage to detect any food spillage. Animals were accustomed to these new conditions (individual housing and the wire-grid floor cages) for at least 14 days before the start of the baseline readings. […] Food intake and body weight were measured once daily. […] Thus, means were adjusted for differences in body weight between the groups on Day 1 and standard errors of the mean (SEM) were calculated from the residuals of the statistical model. […]

Series [3] is described as follows: Determination of carcass fat content in dietary-induced obese rats. As to conditions: g per rat, Figure 4. It counts as in vivo, female Wistar rats. How it is done:
(§1) The experiment was performed on female Wistar rats (originally in the weight range 250-300 g). The rats were housed in pairs in polypropylene cages with solid floors and sawdust bedding at a temperature of 21±4°C and 55±20% humidity. Animals were maintained on a reverse phase light-dark cycle (lights off for 8 h from 09.30-17.30 h) during which time the room was illuminated by red light. Animals had free access to powdered high fat diet (VRF1 plus 20% lard), ground chocolate, ground peanuts and tap water at all times. The three different diets were contained in separate glass feeding jars with aluminum lids with a 3-4 cm hole cut in it to allow access to the food. Animals were housed in pairs for twelve weeks for the induction of obesity. Animals were then housed singly in polypropylene cages with wire grid floors to enable the food intake of each rat to be recorded. […] Animals were accustomed to these new conditions (individual housing and the wire-grid floor cages) for at least 14 days before the start of the baseline readings. […] Percentage fat in the freeze-dried sample was calculated as follows: % fat = [100 × (final cup weight-initial cup weight)]/sample weight [formula] Percentage fat in the original sample was calculated using the % water as follows: % fat in original sample = % fat[(100-%water)/100] […]

A short description of series [4]: Plasma leptin assay in dietary-induced obese rats. As to conditions: Figure 5. It counts as in vivo, female Wistar rats. The procedure: as §1, with “Plasma leptin concentration was determined using Assay Designs rat leptin enzyme immunometric assay kits (Cat No. 900-015) according to” for “Percentage fat in”, “manufacturer's regular protocol. […] Optical density at 450 nm” for “freeze-dried sample”, “determined” for “calculated as follows: % fat = [100 × (final cup weight-initial cup weight)]/sample weight [formula] Percentage fat in the original sample was calculated”, “a Molecular Devices VERSAmax tunable microplate reader and readings transferred to GraphPad Prism.” for “the % water as follows: % fat in original sample = % fat[(100-%water)/100]”

Series [5] can be described thus: Plasma insulin assay in dietary-induced obese rats. As to conditions: Figure 6. It counts as in vivo, female Wistar rats. How it is done:
as §1, with “Plasma insulin concentration was determined using Mercodia ultrasensitive rat insulin ELISA kits according to” for “Percentage fat in”, “manufacturers 50 µl” for “freeze-dried”, “sample protocol. […] Optical density at 450 nm” for “sample”, “determined” for “calculated as follows: % fat = [100 × (final cup weight-initial cup weight)]/sample weight [formula] Percentage fat in the original sample was calculated”, “a Molecular Devices VERSAmax tunable microplate reader and readings transferred to GraphPad Prism.” for “the % water as follows: % fat in original sample = % fat[(100-%water)/100]”

Series [6] is described as follows: Stability of the crystalline form. The series is classed as physicochemical. As to conditions: under certain conditions, especially around room temperature, and/or over time.
Series [7] is described as follows: Solubility. The series is classed as physicochemical.
Series [8] deals with Herg channel (Homo sapiens, UniProt Q12809). Put plainly: Herg channel affinity. As to conditions: low risk of prolongation of the QT-interval expected.
Setting [9] is: 10 mg/kg po once daily for 28 days.
[10] abbreviates: 30 mg/kg po once daily for 28 days.

T1 sequence (P21554 whole entry): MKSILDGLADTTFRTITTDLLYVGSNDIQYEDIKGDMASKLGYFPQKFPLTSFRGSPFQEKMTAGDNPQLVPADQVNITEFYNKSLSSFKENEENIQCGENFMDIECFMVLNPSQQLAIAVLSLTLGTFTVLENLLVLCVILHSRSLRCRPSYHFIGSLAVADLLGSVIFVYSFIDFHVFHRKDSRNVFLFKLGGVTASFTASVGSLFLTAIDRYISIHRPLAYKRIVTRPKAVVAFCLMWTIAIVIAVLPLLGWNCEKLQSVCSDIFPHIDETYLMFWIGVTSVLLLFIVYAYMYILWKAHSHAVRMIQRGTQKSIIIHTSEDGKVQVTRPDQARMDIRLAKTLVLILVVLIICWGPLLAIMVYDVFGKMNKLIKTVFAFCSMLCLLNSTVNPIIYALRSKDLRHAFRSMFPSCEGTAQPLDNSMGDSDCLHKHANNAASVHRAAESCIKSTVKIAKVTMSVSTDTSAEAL
Herg channel, sequence (Q12809 whole entry): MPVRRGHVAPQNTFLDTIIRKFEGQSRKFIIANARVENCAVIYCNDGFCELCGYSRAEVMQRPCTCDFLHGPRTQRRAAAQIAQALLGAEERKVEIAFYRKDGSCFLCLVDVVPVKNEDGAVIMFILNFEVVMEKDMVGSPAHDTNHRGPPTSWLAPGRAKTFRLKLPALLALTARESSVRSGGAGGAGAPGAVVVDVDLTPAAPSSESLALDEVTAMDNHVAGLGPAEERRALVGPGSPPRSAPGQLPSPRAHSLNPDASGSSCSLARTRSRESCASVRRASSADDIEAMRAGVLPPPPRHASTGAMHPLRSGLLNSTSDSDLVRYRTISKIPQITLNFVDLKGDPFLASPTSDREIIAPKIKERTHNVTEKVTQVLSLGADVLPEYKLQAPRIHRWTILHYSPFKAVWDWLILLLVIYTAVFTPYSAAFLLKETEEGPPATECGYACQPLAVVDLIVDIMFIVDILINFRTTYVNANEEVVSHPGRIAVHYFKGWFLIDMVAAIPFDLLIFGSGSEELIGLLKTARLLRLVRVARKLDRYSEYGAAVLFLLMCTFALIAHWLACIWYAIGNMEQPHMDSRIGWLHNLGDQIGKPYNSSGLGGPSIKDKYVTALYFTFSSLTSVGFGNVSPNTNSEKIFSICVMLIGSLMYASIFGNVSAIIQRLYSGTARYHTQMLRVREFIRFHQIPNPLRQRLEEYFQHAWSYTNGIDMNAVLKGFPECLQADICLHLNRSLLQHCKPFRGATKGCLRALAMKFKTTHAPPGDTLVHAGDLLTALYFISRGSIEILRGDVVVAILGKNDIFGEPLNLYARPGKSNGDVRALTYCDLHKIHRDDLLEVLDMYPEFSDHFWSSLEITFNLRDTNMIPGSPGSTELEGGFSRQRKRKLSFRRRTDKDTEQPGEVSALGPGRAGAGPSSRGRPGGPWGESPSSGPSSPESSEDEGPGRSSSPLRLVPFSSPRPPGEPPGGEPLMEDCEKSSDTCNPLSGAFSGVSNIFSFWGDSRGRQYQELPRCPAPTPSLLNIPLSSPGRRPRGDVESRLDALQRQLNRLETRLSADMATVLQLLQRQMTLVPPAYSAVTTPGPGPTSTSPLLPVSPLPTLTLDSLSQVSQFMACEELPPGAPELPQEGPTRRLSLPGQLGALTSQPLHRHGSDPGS

Consider `O=C(NN1CCCCC1)C1=NN(c2ccc(Cl)cc2Cl)[C@@H](c2ccc(Cl)cc2)C1` [Compound A, (R)-N-piperidinyl-5-(4-chlorophenyl)-1-(2,4-dichlorophenyl)-4,5-dihydro-1H-pyrazole-3-carboxamide], for which, in series [1], the “Antagonism [%]” value is listed as 106%. Besides, the entries for the “body weights lower than those of the vehicle-treated controls” value in series [2] (10 mg/kg po once daily) and in series [2] (30 mg/kg po once daily) were 12.0% and 19.0%, respectively. Also, the “decrease in body fat compared to the vehicle-treated control group” value in series [3] (setting [9]) is 42.8 g; in series [3] (setting [10]), 67.8 g. In addition, the results for the “decrease of plasma leptin levels compared to the vehicle-treated control group” value in series [4] (setting [9]) and in series [4] (setting [10]) were 36.1% and 61.7%, respectively. Moreover, the “decrease of plasma insulin levels compared to the vehicle-treated control group” value in series [5] (setting [9]) is 38.9%; in series [5] (setting [10]), 41.8%.

For `O=C(NN1CCCCC1)C1=NN(c2ccc(Cl)cc2Cl)[C@@H](c2ccc(Cl)cc2)C1` [α-Polymorph, α-Polymorph of (R)-N-piperidinyl-5-(4-chlorophenyl)-1-(2,4-dichlorophenyl)-4,5-dihydro-1H-pyrazole-3-carboxamide], the stability entry in series [6] is reported as “good stability”. Moreover, in series [7], the solubility result is “relatively good”. Also, the Herg channel affinity result in series [8] is reported as “relatively weak”.

Source of the values: patent EP1944293A1, “Alpha-Polymorph of a substituted pyrazoline, its preparation and use as medicaments” (Laboratorios del Dr. Esteve S.A., priority 2007, dated 2008).
